Measurements published in patent US11116752B2, “Pharmaceutical composition comprising bicyclo-substituted pyrazolon azo derivative or salt thereof and preparation method thereof” (Jiangsu Hengrui Medicine Co., Ltd., priority 2016, dated 2021).

Assay: Stability test of Compound B and its mixtures with fillers (1:10)
Assay type: physicochemical
Protocol: The Compound B was mixed respectively with cellulose-lactose (cellactose 80), a simple mixture of cellulose and lactose (75%:25%), spray-dried lactose (Flowlac 100), microcrystalline cellulose PH302, or microcrystalline cellulose PH102 in a ratio of 1:10. The above mixtures and Compound B were placed respectively under conditions of 40° C./RH75%/open, 40° C./RH75%/closed, or 60° C./closed for 2 weeks and 4 weeks.

In the case of `CC1=NN(c2ccc3c(c2)CCCC3)C(=O)/C1=N\Nc1cccc(-c2ccc(C(=O)O)o2)c1O` [Compound B, (Z)-5-(2-hydroxy-3-(2-(3-methyl-5-oxo-1-(5,6,7,8-tetrahydronaphthalen-2-yl)-1H-pyrazol-4(5H)-ylidene)hydrazino)phenyl)furan-2-carboxylic acid], the Appearance (40° C./RH75%/closed, 2 Weeks) was “Dark red powder”, the “Related substances (%)” value (40° C./RH75%/closed, 2 Weeks) was 1.08% and the Appearance (40° C./RH75%/closed, 4 Weeks) was “Dark red powder”. For the same compound, the “Related substances (%)” value (40° C./RH75%/closed, 4 Weeks) was 1.18%, the Appearance (40° C./RH75%/open, 2 Weeks) was “Dark red mass” and the “Related substances (%)” value (40° C./RH75%/open, 2 Weeks) was 1.32%. For the same compound, the Appearance (40° C./RH75%/open, 4 Weeks) was “Dark red mass”, the “Related substances (%)” value (40° C./RH75%/open, 4 Weeks) was 1.93% and the Appearance (60° C./closed, 2 Weeks) was “Dark red mass”. The “Related substances (%)” value (60° C./closed, 2 Weeks) was 3.05%, the Appearance (60° C./closed, 4 Weeks) was “Dark red mass” and the “Related substances (%)” value (60° C./closed, 4 Weeks) was 4.84%. The Appearance (Initial point, 0 Day) was “Dark red powder” and the “Related substances (%)” value (Initial point, 0 Day) was 0.90%.
